pKi: −log10 of the molar value.
Target: full-length ATR (Homo sapiens (Human), UniProt Q13535)
Assay: ATR inhibition assay (radioactive-phosphate incorporation)
Type: biochemical
Conditions: not given
Experimental: Example 76A: ATR Inhibition Assay
Compounds were screened for their ability to inhibit ATR kinase using a radioactive-phosphate incorporation assay. Assays were carried out in a mixture of 50 mM Tris/HCl (pH 7.5), 10 mM MgCl2 and 1 mM DTT.
Assays were carried out at 25° C. in the presence of 5 nM full-length ATR. An assay stock buffer solution was prepared containing all of the reagents listed above, with the exception of ATP and the test compound of interest. […] The plate was pre-incubated for 10 minutes at 25° C. and the reaction initiated by addition of 15 μL [γ-33P]ATP (final concentration 10 μM).
The reaction was stopped after […] by the addition of 30 μL, 0.1M phosphoric acid containing 2 mM ATP. A multiscreen phosphocellulose filter 96-well plate (Millipore, Cat no. MAPHN0B50) was pretreated with 100 μL, 0.2M phosphoric acid prior to the addition of 45 μL of the stopped assay mixture. […] After drying, 100 μL Optiphase ‘SuperMix’ liquid scintillation cocktail (Perkin Elmer) was added to the well prior to scintillation counting (1450 Microbeta Liquid Scintillation Counter, Wallac).
After removing mean background values for all of the data points, Ki(app) data were calculated from non-linear regression analysis of the initial rate data using the Prism software package (GraphPad Prism version 3.0cx for Macintosh, GraphPad Software, San Diego, Calif., USA).

Sequence of full-length ATR (Q13535 whole entry): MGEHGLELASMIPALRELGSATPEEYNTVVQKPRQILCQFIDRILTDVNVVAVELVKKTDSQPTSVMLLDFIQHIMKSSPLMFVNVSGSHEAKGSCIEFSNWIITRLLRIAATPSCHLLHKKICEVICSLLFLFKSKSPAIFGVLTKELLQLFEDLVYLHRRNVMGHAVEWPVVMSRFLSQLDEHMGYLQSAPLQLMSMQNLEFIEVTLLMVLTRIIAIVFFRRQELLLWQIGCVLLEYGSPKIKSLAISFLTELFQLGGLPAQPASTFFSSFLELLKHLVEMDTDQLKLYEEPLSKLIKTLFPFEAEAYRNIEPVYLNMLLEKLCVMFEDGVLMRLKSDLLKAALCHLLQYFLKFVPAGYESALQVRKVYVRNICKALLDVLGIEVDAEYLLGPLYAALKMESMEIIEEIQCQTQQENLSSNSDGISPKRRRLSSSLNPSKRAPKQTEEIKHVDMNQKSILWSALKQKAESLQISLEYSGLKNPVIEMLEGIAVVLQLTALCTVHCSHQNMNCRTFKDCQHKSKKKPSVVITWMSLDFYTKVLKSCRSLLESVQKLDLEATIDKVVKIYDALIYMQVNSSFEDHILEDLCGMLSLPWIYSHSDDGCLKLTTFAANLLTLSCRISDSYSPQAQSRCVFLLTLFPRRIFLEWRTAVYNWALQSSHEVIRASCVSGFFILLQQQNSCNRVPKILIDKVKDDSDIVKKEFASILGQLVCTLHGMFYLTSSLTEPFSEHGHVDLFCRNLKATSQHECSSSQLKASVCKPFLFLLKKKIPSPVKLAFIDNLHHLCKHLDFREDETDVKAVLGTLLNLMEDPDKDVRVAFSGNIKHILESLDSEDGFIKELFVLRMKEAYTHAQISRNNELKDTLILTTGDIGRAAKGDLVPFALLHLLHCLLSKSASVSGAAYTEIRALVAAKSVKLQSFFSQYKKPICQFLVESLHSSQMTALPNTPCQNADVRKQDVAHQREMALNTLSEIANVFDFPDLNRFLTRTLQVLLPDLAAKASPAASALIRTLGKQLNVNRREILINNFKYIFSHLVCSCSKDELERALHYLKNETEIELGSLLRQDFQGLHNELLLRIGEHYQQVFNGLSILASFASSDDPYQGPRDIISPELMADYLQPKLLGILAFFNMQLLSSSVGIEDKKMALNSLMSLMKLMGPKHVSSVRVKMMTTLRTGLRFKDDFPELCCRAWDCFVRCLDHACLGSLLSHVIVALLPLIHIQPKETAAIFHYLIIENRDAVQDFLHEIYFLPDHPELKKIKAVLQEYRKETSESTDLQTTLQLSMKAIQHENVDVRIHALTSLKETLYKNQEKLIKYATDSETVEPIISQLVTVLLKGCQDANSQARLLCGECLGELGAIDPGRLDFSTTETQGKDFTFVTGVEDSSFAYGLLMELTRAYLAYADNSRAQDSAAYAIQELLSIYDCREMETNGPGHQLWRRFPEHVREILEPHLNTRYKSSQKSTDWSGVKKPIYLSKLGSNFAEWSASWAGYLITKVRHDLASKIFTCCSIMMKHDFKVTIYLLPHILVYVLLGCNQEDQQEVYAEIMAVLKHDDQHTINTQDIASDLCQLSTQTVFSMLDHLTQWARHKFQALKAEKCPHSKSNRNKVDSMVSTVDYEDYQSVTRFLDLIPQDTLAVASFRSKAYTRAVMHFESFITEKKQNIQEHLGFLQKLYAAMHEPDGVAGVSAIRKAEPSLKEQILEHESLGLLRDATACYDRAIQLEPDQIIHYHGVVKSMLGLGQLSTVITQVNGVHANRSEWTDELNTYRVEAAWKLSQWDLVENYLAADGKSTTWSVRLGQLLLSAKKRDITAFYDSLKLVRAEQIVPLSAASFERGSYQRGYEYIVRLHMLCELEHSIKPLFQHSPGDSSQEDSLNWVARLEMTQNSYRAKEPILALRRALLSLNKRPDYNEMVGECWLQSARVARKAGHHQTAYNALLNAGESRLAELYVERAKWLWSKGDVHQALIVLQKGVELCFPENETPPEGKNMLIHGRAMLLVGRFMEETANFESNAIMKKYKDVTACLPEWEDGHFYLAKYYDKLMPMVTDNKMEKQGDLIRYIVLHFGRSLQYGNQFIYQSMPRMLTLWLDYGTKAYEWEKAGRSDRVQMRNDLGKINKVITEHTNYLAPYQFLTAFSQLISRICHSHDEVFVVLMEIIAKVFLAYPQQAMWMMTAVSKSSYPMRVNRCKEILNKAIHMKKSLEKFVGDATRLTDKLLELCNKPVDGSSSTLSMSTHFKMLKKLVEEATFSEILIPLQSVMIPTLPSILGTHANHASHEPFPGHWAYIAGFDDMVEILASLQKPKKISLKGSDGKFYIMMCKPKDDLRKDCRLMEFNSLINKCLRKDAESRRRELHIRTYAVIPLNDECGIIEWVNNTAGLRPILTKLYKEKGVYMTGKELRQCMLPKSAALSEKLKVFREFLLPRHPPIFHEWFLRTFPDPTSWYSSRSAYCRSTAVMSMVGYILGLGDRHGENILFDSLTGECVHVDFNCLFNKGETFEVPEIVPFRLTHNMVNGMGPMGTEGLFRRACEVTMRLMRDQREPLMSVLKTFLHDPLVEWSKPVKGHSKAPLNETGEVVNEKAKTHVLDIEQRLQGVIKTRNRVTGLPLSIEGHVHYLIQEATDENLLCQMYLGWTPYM

SMILES	pKi
CN(C)C1CCN(C(=O)c2cccc(-c3cnc(N)c(C(=O)Nc4ccccc4)n3)c2)C1 (stereo not shown) [Compound I-55, 3-amino-6-(3-(3-(dimethylamino)pyrrolidine-1-carbonyl)phenyl)-N-phenylpyrazine-2-carboxamide]	5.30 to 7.00
Nc1ncc(-c2cccc(C(=O)NC3CCC(O)CC3)c2)nc1C(=O)Nc1ccccc1 (stereo not shown) [Compound I-57, 3-amino-6-(3-(4-hydroxycyclohexylcarbamoyl)phenyl)-N-phenylpyrazine-2-carboxamide]	5.30 to 7.00
CN(C)C1CCN(C(=O)c2ccc(-c3cnc(N)c(C(=O)Nc4ccccc4)n3)cc2)C1 (stereo not shown) [Compound I-76, 3-amino-6-(4-(3-(dimethylamino)pyrrolidine-1-carbonyl)phenyl)-N-phenylpyrazine-2-carboxamide]	7.00 to 8.00
Nc1ncc(-c2ccc(C(=O)N3CCCNCC3)c3ccccc23)nc1-c1nnc(-c2ccccc2)o1 [IA-48]	7.00 to 8.00
CC(NC(=O)OC(C)(C)C)c1cccc(-c2nnc(-c3nc(-c4ccc(S(=O)(=O)C(C)C)cc4)cnc3N)o2)c1 (stereo not shown) [IA-154, tert-butyl N-[1-[3-[5-[3-amino-6-(4-isopropylsulfonylphenyl)pyrazin-2-yl]-1,3,4-oxadiazol-2-yl]phenyl]ethyl]carbamate]	≥ 8.00

The remaining lines, values ahead:

pKi	SMILES
7.00 to 8.00	Nc1ncc(-c2ccc(C(=O)N3CCCNCC3)cc2)nc1-c1noc(-c2ccccc2)n1 [IA-2]
7.00 to 8.00	CC(C)(C)CCN1CCCN(C(=O)c2ccc(-c3cnc(N)c(-c4nnc(-c5ccccc5)o4)n3)cc2)CC1 [IA-27]

Same assay, conditions: ATR Inhibition Ki values; 5 nM full-length ATR, 10 μM ATP

SMILES	pKi
CNCc1ccc(-c2nnc(-c3nc(-c4ccc(S(=O)(=O)C(C)C)c(OC(F)(F)F)c4)cnc3N)o2)cc1 [IA-290, 5-[4-isopropylsulfonyl-3-(trifluoromethoxy)phenyl]-3-[5-[4-(methylaminomethyl)phenyl]-1,3,4-oxadiazol-2-yl]pyrazin-2-amine]	≥ 8.00
CNCc1ccc(-c2nnc(-c3nc(-c4ccc(S(=O)(=O)C(C)CCOC)cc4)cnc3N)o2)c(F)c1 (stereo not shown) [IA-332, 3-[5-[2-fluoro-4-(methylaminomethyl)phenyl]-1,3,4-oxadiazol-2-yl]-5-[4-(3-methoxy-1-methyl-propyl)sulfonylphenyl]pyrazin-2-amine]	≥ 8.00
CCc1cccc(NC(=O)c2nc(-c3ccc(S(C)(=O)=O)cc3)cnc2N)n1 [VII-4]	7.00 to 8.00
Cc1cccc(NC(=O)c2nc(-c3ccc(S(C)(=O)=O)cc3)cnc2N)n1 [VII-5]	7.00 to 8.00

Further lines, results first:

pKi	SMILES
≥ 8.00	CS(=O)(=O)c1ccc(-c2cnc(N)c(-c3nnc(-c4ccccc4)o3)n2)cc1 [IA-89, 5-(4-methylsulfonylphenyl)-3-(5-phenyl-1,3,4-oxadiazol-2-yl)pyrazin-2-amine]
≥ 8.00	C[S+]([O-])c1ccc(-c2cnc(N)c(-c3nnc(-c4ccccc4)o3)n2)cc1 (stereo not shown) [IA-274, 5-(4-methylsulfinylphenyl)-3-(5-phenyl-1,3,4-oxadiazol-2-yl)pyrazin-2-amine]
